Results as given in US20220380408A1, “COMPOSITIONS AND METHODS FOR INHIBITING NEOINTIMAL FORMATION” (University of Virginia Patent Foundation, priority 2019, published 2022).
“Also recorded” adds a separate entry of the source. Each block holds one molecule with its values, some of them ahead of it. Ends that are not written are not given here. * marks the point of attachment. Stearoyl = CCCCCCCCCCCCCCCCCC(=O)*

What was measured:
[1] = system: Human coronary artery smooth muscle cells; experiment: EDU proliferation by flow cytometry in cultured human coronary artery smooth muscle cells; type: cell-based; conditions: for proliferation (EDU incorporation, flow cytometry): hCASMC incubated with agent for 48 hours (PGPC 100 μg, POVPC 100 μg, PDGF 20 ng)
Protocol: (§1) Protein expression and interaction in cultured human coronary artery smooth muscle cells. Human coronary artery smooth muscle cells (Thermo Fisher Scientific, Inc., Waltham, Massachusetts, United States of America), were cultured until confluent in M231 media containing growth supplement (Thermo Fisher Scientific, Low Serum Growth Supplement Kit (LSGS) kit) as well as 20% fetal bovine serum (FBS). Prior to incubations, media was switched to low serum media (M231+2% FBS) for 3 days as previously described (Lohman et al., 2016). Cells were then incubated with oxidized phospholipids 1-palmitoyl-2-glutaroyl-sn-glycero-3-phosphorylcholine (PGPC, 100 μg) and 1-palmitoyl-2-oxovaleroyl-sn-glycero-3-phosphorylcholine (POVPC 100 μg), or the growth factor platelet derived growth factor beta (PDGF, 20 ng) as we have previously described (Johnstone et al. 2009; Johnstone et al. 2012) for 48 hours prior to harvesting and analysis for Western blotting and co-immunoprecipitation and EDU proliferation by flow cytometry as previously described (Johnstone et al. 2012). For peptide incubations, peptides were pre-incubated for 30 minutes with cells in fresh media prior to adding any further treatments.
However, the ability to bind with, and therefore activate, cyclin D was inhibited in the presence of PGPC (see FIG. 2A). […] Taken together, this identified Cx43 phosphorylation status as a molecular switch that controlled cellular proliferation (MAPK-Cx43) or quiescence (PKC-Cx43), a model that is depicted in see FIG. 2C.
(§2) Peptides representing sequences within the C-terminus of human Cx43, designed by peptide array, inhibited proliferation of human smooth muscle cells (see FIGS. 3A-3F). Cells were pretreated for 30 minutes with peptides, prior to incubation with PDGF for 2 days.

cyclin D = experiment: Co-immunoprecipitation of Cx43 with cyclin D in human coronary artery smooth muscle cells; type: cell-based; conditions: hCASMC
Protocol: as §1
However, the ability to bind with, and therefore activate, cyclin D was inhibited in the presence of PGPC (see FIG. 2A). […]

cyclin E [2] = biological target: T1, cyclin E (Homo sapiens, UniProt P24864); experiment: Co-immunoprecipitation of Cx43/cyclin E interaction in human SMC; type: cell-based; set-up: host or cells: human coronary artery smooth muscle cells; conditions: versus no peptide and scrambled peptide
Protocol: as §1
Peptides representing sequences within the C-terminus of human Cx43, designed by peptide array, inhibited proliferation of human smooth muscle cells (see FIGS. 3A-3F). […]

Cx43 = experiment: Western blot of Cx43 phosphorylation status in human coronary artery smooth muscle cells; type: cell-based; conditions: hCASMC
Protocol: as §1, §2

cyclin E [3] = biological target: T1, cyclin E; experiment: Peptide array (truncation array) probed with cyclin E protein; type: binding; set-up: made in house; conditions: based on mouse Cx43 sequence; cyclin E 10 μg/mL overnight
Description: Peptide array. The C-terminus of the human Cx43 polypeptpide (Cx43-CT) is about 150 amino acids (a.a.) with a high abundance (>10%) of post-translationally modified sites (Aasen et al., 2018). This means that hundreds of combinations are required to delineate binding parameters. Using novel peptide array technology, the sites of interaction between connexin 43 (Cx43) and cyclin E were mapped. Immobilized peptide libraries corresponding to 25-residue regions of Cx43-CT were designed, synthesized, and nitrocellulose arrays generated. To test the requirement for phosphorylation, specific residues were replaced to mimic known protein interacting states (e.g., MAPK-Cx43 serines 255/262/279/282; see Johnstone et al. 2012). The role for phosphorylation was assayed in binding using single and multiple residue replacements. These included wild-type serine (S), native phospho-serine (pS), aspartate (D, phospho-mimic), or alanine (A, phospho-null) residues. Recombinant human cyclin E protein was generated for incubation with arrays (Johnstone et al. 2012). […] Signal was then detected using electrochemiluminescence (ECL) detection reagents as per manufacturer protocol (PIERCE™ brand, available from Thermo Fisher Scientific, Inc., Waltham, Mass., United States of America) and blots were scanned for analysis. […]

[4] = system: human melanoma (A375-MA2); experiment: WST-1 (viability/MTT) assay of cancer cell proliferation, A375-MA2; type: cell-based; conditions: single treatment 30 μM at day 0; versus control peptide
Protocol: (§3) Two cancer cell lines originating from human melanoma (A375-MA2) and triple negative breast cancer (Hs578T) were used to assess the role of CycliCx in inhibiting proliferation. 500 cells per well were cultured in a 96-well plate containing 100 μl of medium. The next day (Day 0), 30 μM of CycliCx peptide or control peptide was added to the cells. Starting from Day 0, 10 μl of WST-1 reagent (viability/MTT) was added to each well and incubated for 75 minutes. Absorbance was measured at 450 nm. Data are presented in FIGS. 6B (A375-MA2) and 6C (Hs578T) as mean±SEM. p<0.05 by two way ANOVA.

[5] = system: human saphenous vein tissues; experiment: Ex vivo human saphenous vein explant model (HUSVEM); type: cell-based; conditions: PDGF 50 ng/mL, 14 days, peptide 30 μM, everolimus 10 nM
Protocol: Ex vivo, human saphenous vein explant model (HUSVEM). The translational relevance of the peptides was assessed in an ex vivo, human saphenous vein explant model (HUSVEM) based on previously validated protocols (Baker et al. 1997; Dreifaldt et al. 2013; Loesch, Dashwood & Souza, 2006; George et al., 1996). Briefly, human veins were obtained as excess tissue from coronary artery bypass surgeries. The protocol was assessed by the Institutional Review Board (IRB) of the University of Virginia (Charlottesville, Va., United States of America), and no IRB protocol was required. Human saphenous veins were opened laterally, cut into 10 mm sections, and pinned with the endothelial side facing up on SYLGARD® brand silicone curing agent-coated plates in RMPI media containing 2% FBS. After 1 hour, cells were incubated with either control peptide or CycliCx peptide (30 μM; LDPAKDCGDQKYAY; SEQ ID NO: 1) or everolimus (10 nM; Sigma Aldrich) for a further 60 minutes, prior to adding PDGF (50 ng/mL). Media was changed daily with fresh media containing peptides or everolimus and PDGF. At the end of 14 days media was removed and tissues fixed in 4% PFA for 24 hours then washed in 70% ethanol, prior to embedding in 3% agarose. Samples were then processed by routine paraffin embedding and stained using hematoxylin and eosin and van Gieson stains. Comparisons of neointmal growth were made, where the uppermost layer of elastin was used to identify the start region for formed neointima. Neointimal areas were calculated across 10 serial sections from each tissue and averaged. Analysis of PDGF treated vessels to peptide and everolimus treated tissues were made.
An exemplary CycliCx peptide (LDPAKDCGDQKYAY; SEQ ID NO: 1) was applied to human saphenous veins in ex vivo preparations for 2 weeks in the presence of PDGF and compared to everolimus, an agent used in drug eluting stents.

mouse carotid arteries = experiment: Mouse carotid ligation neointimal formation model; type: in vivo; conditions: for Neointimal/media Ratio (±SEM): carotid ligation, 200 μg peptide in pluronic, 2 weeks
Protocol: Mouse carotid surgeries. Carotid ligation and pluronic application surgeries were performed as described (Johnstone et al. 2009; Johnstone et al. 2012). Briefly, mice were anesthetized by isoflurane and the left common carotid artery was exposed and carefully freed from surrounding tissue. A 6/0 silk suture was run under the carotid artery distal to the bifurcation site and two consecutive, flat square knots were tied tight enough to restrict blood flow. Control mice were surgical controls, where carotid artery was exposed and freed of surrounding tissue as described above but no suture was applied. Following ligation either 35% F127 pluronic gel, CycliCx peptide (200 μg in pluronic; LDPAKDCGDQKYAY; SEQ ID NO: 1) or control peptide (200 μg in pluronic; AYFNGCSSPTAPLDP; SEQ ID NO: 3) was applied to the outside of the carotid wall and surgical wound closed. At 2 weeks after surgery, mice were euthanized with an intraperitoneal injection of 60-90 mg/kg pentobarbital. Mice were perfused with 4% paraformaldehyde (PFA) and both treated (left common) and control (right common) carotids removed and stored in 4% PFA overnight for whole mount analysis or immunosectioning. For in vivo cell proliferation studies, mice were preinjected with 5-ethynyl-2′-deoxyuridine (EDU) prior to surgery and carotids were removed post-treatment for whole mount or tissue cross section analysis of EDU incorporation into proliferating cells. For analysis of neointima formation in vessels, areas corresponding to the media (containing vascular smooth muscle cells (VSMC)), neointima (containing proliferating VSMC) and lumen (void area) were measured on Haemotoxylin and Eosin (H&E) stained cross sections of carotid vessels and analyzed by Image J, image analysis software. The ratio of media:neointima was calculated.
An exemplary CycliCx peptide (LDPAKDCGDQKYAY; SEQ ID NO: 1) was applied to the carotids of mice for 14 days after placement of a suture to induce neointimal formation (FIG. 4A). In both ligation only and ligation with peptide, extensive neointima formed. […] Effects were tested in both male and female mice, and no sex-specific differences were noted (FIG. 4B and Table 1).

[6] = system: triple negative breast cancer (Hs578T); experiment: WST-1 (viability/MTT) assay of cancer cell proliferation, Hs578T; type: cell-based, human; conditions: single treatment 30 μM at day 0; versus control peptide
Protocol: as §3

T1 sequence (P24864 whole entry): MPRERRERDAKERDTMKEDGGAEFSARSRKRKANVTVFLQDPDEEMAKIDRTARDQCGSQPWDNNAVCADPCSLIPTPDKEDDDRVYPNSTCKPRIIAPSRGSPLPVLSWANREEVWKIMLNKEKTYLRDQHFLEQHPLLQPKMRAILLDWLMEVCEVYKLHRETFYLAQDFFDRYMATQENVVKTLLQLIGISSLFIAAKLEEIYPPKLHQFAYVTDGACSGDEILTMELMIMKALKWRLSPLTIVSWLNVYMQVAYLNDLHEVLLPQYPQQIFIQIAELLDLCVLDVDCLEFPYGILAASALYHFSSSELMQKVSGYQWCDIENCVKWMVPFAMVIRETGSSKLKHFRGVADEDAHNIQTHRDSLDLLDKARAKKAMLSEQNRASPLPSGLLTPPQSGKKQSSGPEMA

Molecule: CCCCCCCCCCCCCCCC(=O)OC[C@H](COP(=O)([O-])OCC[N+](C)(C)C)OC(=O)CCCC(=O)O [PGPC, 1-palmitoyl-2-glutaroyl-sn-glycero-3-phosphorylcholine, reference compound]
proliferation (EDU incorporation, flow cytometry) [1]: decreased proliferation | ability of Cx43 to bind with, and therefore activate, cyclin D (cyclin D): inhibited

interactions with cyclin E (co-immunoprecipitation) (cyclin E [2]): significantly reduced
Molecule: LDPSKDCGDPKYAY [pep3(mouse), CycliCx peptide with mouse Cx43 residues at positions 257 and 263]
PKC-phosphorylated Cx43 species (western blot, pS368) (Cx43): predominantly induced | phosphorylation status of Cx43 (western blot) (Cx43): altered | phosphorylation status of Cx43 (western blot) (Cx43; listed as pep3): significantly altered

sequence required for cyclin E binding in truncation-based array (cyclin E [3]): minimum sequence
Molecule: DPSKDCGDPKYAY

Molecule: CCCCCCCCCCCCCCCC(=O)OC[C@H](COP(=O)([O-])OCC[N+](C)(C)C)OC(=O)CCCC=O [POVPC, 1-palmitoyl-2-oxovaleroyl-sn-glycero-3-phosphorylcholine, reference compound]
proliferation (EDU incorporation, flow cytometry) [1]: increased proliferation

Molecule: stearate-LDPAKDCGDQKYAY (Stearoyl-LDPAKDCGDQKYAY) [CycliCx]
proliferation of A375-MA2 cells [4]: significantly inhibit proliferation | EDU incorporation (proliferation) of human smooth muscle cells ([1]; peptide pretreatment 30 minutes, then PDGF for 2 days, versus PDGF alone or Scr peptide): reduced | neointimal formation in human saphenous veins [5]: inhibited neointimal formation; also recorded: completely inhibited | Neointimal/media Ratio (±SEM) (mouse carotid arteries; female mice): 0.0060 ± 0.0379 | Neointimal/media Ratio (±SEM) (mouse carotid arteries; male mice): 0.0110 ± 0.0055 | neointimal formation induced by suture ligation (mouse carotid arteries; mouse carotid, peptide applied for 14 days): completely inhibited; also recorded: prevented | proliferation of Hs578T cells [6]: significantly inhibit proliferation

Molecule: AYFNGCSSPTAPLDP [Control Pep, non-targeting control peptide, reference compound]
neointimal formation in human saphenous veins [5]: neointima were identified | Neointimal/media Ratio (±SEM) (mouse carotid arteries; female mice): 1.017 ± 0.3869 | Neointimal/media Ratio (±SEM) (mouse carotid arteries; male mice): 0.6690 ± 0.1111

Molecule: CO[C@H]1C[C@@H]2CC[C@@H](C)[C@@](O)(O2)C(=O)C(=O)N2CCCC[C@H]2C(=O)O[C@H]([C@H](C)C[C@@H]2CC[C@@H](OCCO)[C@H](OC)C2)CC(=O)[C@H](C)/C=C(\C)[C@@H](O)[C@@H](OC)C(=O)[C@H](C)C[C@H](C)/C=C/C=C/C=C/1C [everolimus, reference compound]
neointimal formation in human saphenous veins [5]: inhibited neointimal formation

B1: platelet derived growth factor beta (protein, UniProt P01127 82-190, looked up)
Platelet-derived growth …: SLGSLTIAEPAMIAECKTRTEVFEISRRLIDRTNANFLVWPPCVEVQRCSGCCNNRNVQCRPTQVQLRPVQVRKIEIVRKKPIFKKATVTLEDHLACKCETVAAARPVT
notes: growth factor promoting MAPK phosphorylation of Cx43
proliferation (EDU incorporation, flow cytometry) [1]: increased proliferation
